In patent US8680076B2, “Methods of treatment, improvement and prevention using haloaryl substituted aminopurines” (Signal Pharmaceuticals, LLC, priority 2010, dated 2014):
“Also recorded” adds a separate entry of the source.

Key:
Tsk-1 mice = assay: Tight skin-1 (Tsk-1) mouse model of systemic sclerosis; format: in vivo; conditions: for decrease of number of myofibroblasts / reduction of hypodermal thickening: 6 weeks; for reduction of hypodermal thickening: compared to untreated mice
Description: The antifibrotic effects of the JNK inhibitor Compound JNKi-1 were tested in a murine tight skin-1 (Tsk-1) model of systemic sclerosis. In this model, a dominant mutation in the fibrillin 1 gene (Fbn1^Tsk+/−) leads to a systemic sclerosis-like disease with inflammatory infiltrates and massive fibrosis of the skin (Akhmetshina A, Venalis P, Dees C, Busch N, Zwerina J, Schett G, et al., Treatment with imatinib prevents fibrosis in different preclinical models of systemic sclerosis and induces regression of established fibrosis, Arthritis Rheum. 2009; 60(1):219-24).
Male and female TSK-1 mice were used. Mice were fed a standard diet with water ad libitum. The room temperature was kept constant at 22° C. with a humidity of 60%.
Compound JNKi-1 was dissolved in 0.5% carboxymethylcellulose (CMC)/0.25% Tween 80 in water. As vehicle control a solution of 0.5% CMC/0.25% Tween 80 in water was used. Imatinib mesylate was dissolved in 0.9% NaCl at a concentration of 50 mg/kg/day in a total volume of 100 μL.
Groups of Tsk-1 mice (n=4/sex/group) were assigned to one of five treatment groups: • Untreated wildtype (Fbn1^Tsk−/−) group received 0.5% CMC/0.25% Tween 80 in water orally (PO) twice daily (BID). • Untreated Fbn1Tsk+/− mice received 0.5% CMC/0.25% Tween 80 in water orally BID. • Compound JNKi-1-treated Fbn1^Tsk+/− received 50 mg/kg orally BID. • Compound JNKi-1-treated Fbn1^Tsk+/− received 150 mg/kg orally BID. • Imatinib mesylate-treated Fbn1^Tsk+/− group received 50 mg/kg/day administered intraperitoneally (IP).
Treatments with Compound JNKi-1 and control compound were started at Week 4. After 6 weeks of treatment, mice were sacrificed, and the antifibrotic effects from each treatment were analyzed.
Antifibrotic effects were determined by measuring the dermal thickness and quantifying the numbers of myofibroblasts in the lesional skin. Dermal thickness was determined by measuring the distance from the epidermal/dermal border to the dermal/subdermal border in H & E-stained sections at four different sites. The number of myofibroblasts was quantified by staining for alpha smooth muscle actin (α-SMA) in paraffin-embedded sections. Data are expressed as mean±standard error of the mean (SEM). SPSS17.0 software and the Mann-Whitney-U-test were used for statistical analyses. A p-value of less than 0.05 was considered statistically significant.

[1] = test system: phospho-c-Jun (JNK) in normal human epithelial keratinocytes (nHEK); assay: UVB-stimulated JNK activation in nHEK cells (Western blot); format: cell-based
Description: Two in vitro systems, nHEK and the EpiDermFT™ skin model, were used in this study. The nHEK cells and EpiDermFT™ samples were pretreated with JNKi-1 at concentrations of 0.1, 3, and 10 μM prior to 60 mJ/cm^2 and 135 mJ/cm^2 UVB irradiation, respectively. After UV stimulation, the activities of JNK were measured as levels of phospho-c-Jun via immunoblotting of cell lysates using an anti-phospho-c-Jun S63 antibody. Phospho-Stat3 was also evaluated as a marker of JNK activation.
nHEK Model system. Normal human epithelial keratinocytes (nHEK) cells were grown after three passages. Cells were plated at 2×10^6/plate in 100 mm plates. Plates were incubated at 37° C., 5% CO2 for 5 days until ˜80% confluent. Each plate was washed with warm phosphate buffered saline (PBS) and replenished with 10 mL of media containing either 0, 0.1, 3, or 10 μM of JNKi-1 and incubated for 1 hour (hr) at 37° C. Eight mL of media were removed and set aside. Plates were irradiated with 60 mJ/cm^2 of UVB in a UV cross-linker machine and control plates were sham irradiated. The 8 mL of media set aside were returned to each plate and stored at 37° C. Cells were harvested at 30 minutes and 4 hr post UV treatment and lysed in ice cold cell extraction buffer. Lysates were stored at −80° C.
cells were pre-incubated with either dimethyl sulfoxide (DMSO) (FIG. 31, lanes 1, 2, and 12 to 15) or JNKi-1 at the indicated concentration (lanes 3 to 11) for 1 hr and then irradiated without (Control, lanes 1 and 2) or with UVB at 60 mJ/cm^2 (lanes 3 to 15). Cells were lysed 30 minutes after UV irradiation and cell lysates were subjected to sodium dodecyl sulfate polyacrylamide gel electrophoresis (SDS-PAGE) before Western blotting with anti-phospho-c-Jun antibody. […]
Western analysis: For Western blot analysis, 20 to 25 μg of total protein were applied to SDS-PAGE gels followed by electrophoresis and blotting. […] The intensity of each band was quantified by the Odyssey 2.1 software and exported into Excel for further analysis. […]

## O[C@H]1CC[C@H](Nc2ncc3nc(Nc4c(F)cc(F)cc4F)n([C@H]4CCOC4)c3n2)CC1 [JNKi-1, 4-((9-((3S)-tetrahydro-3-furanyl)-8-((2,4,6-trifluorophenyl)amino)-9H-purin-2-yl)amino)-trans-cyclohexanol]
Tsk-1 mice; 50 mg/kg orally BID
  decrease of number of myofibroblasts: 68%±28%
  reduction of hypodermal thickening: 67%±5%
Tsk-1 mice; 150 mg/kg orally BID
  decrease of number of myofibroblasts: 99%±9%
  reduction of hypodermal thickening: 85%±7%
Tsk-1 mice; 50 and 150 mg/kg orally BID
  hypodermal thickening / myofibroblast counts (in words): dose dependently reduced; also recorded: more pronounced; also recorded: dose-dependently reduce
[1]; Homo sapiens, light or radiation study, nHEK, 1 hr pretreatment, UVB 60 mJ/cm^2, lysed 30 minutes after UV, read-out: IC50 for p-cJun
  IC50: 0.1 to 3 µM
[1]; nHEK, 0.1, 3, 10 μM
  UVB-induced JNK activation (phospho-c-Jun level), in words: strongly Inhibits; also recorded: significantly blocks
[1]; nHEK, 30 minutes post UV, data not shown
  inhibition of phospho-Stat3: minimal
